The source of these data is patent US20110305715A1, “ANTIBODIES TO 3-HYDROXYCOTININE AND METHODS OF USE THEREOF” (priority 2010, published 2011).

The test system of test [1] is Cotinine MAb 3B11A4. The test is described as follows: Competitive microplate ELISA (test principle #1) with immobilized COT MAb and COT-HRP tracer. The class given is binding. Conditions: for Reactivity (%): calculated from IC50 values, Cotinine MAb 3B11A4; for IC50: competitor vs COT-HRP for Cotinine MAb 3B11A4.
Method: (§1) Competitive microplate EIA for quantification of COT (A) and 3HC (B) by test principle #1. Different concentrations of COT or 3HC and fifteen other NIC metabolites were incubated with an immobilized COT MAb or 3HC MAb in the presence of a constant amount of COT-HRP or 3HC-HRP. The binding of the COT-HRP or 3HC-HRP to its corresponding MAb was detected by the reaction of the HRP with peroxidase substrate. The graph illustrates an inhibition curve that was formed with various concentrations of authentic COT (A) and 3HC (B). Apparent COT or 3HC concentrations are inversely related to the OD450 value.
Specificity and sensitivity of the anti-cotinine monoclonal antibody (COT MAb) were determined in competitive microplate ELISA with COT and a battery of NIC metabolites and tobacco alkaloids using COT-HRP as tracer. […] Apparent COT concentrations are inversely related to the OD450 value.
For test [2], the system named is 3-Hydroxycotinine MAb 22H9C7. Put plainly: Competitive microplate ELISA (test principle #1) with immobilized 3HC MAb and 3HC-HRP tracer. Conditions: for Reactivity (%): calculated from IC50 values, 3-Hydroxycotinine MAb 22H9C7; for IC50: competitor vs 3HC-HRP for 3-Hydroxycotinine MAb 22H9C7.
Method: as §1
As for the anti-cotinine monoclonal antibody, above, specificity and sensitivity of the anti-3-hydroxycotinine monoclonal antibody (3HC MAb) was determined in competitive microplate ELISA with 3HC and a battery of NIC metabolites and tobacco alkaloids using 3HC-HRP as tracer. […] Apparent 3HC concentrations are inversely related to the OD450 value.

The structures appear in SMILES notation. Values after ≈ are worked out from the molar mass of the structure shown.

What is called IC50 is the concentration that inhibits the measured activity by half. Read a low IC50 as greater potency in that assay. In the case of `CN1CCC[C@H]1c1ccc[n+]([C@@H]2O[C@H](C(=O)[O-])[C@@H](O)[C@H](O)[C@H]2O)c1` [Nicotine-gluconuride, Nicotine-glucuronide], the “Reactivity (%)” value is reported as under 1.5% in test [1] and under 1% in test [2]. Besides, the IC50 in test [1] and in test [2] was >5,000 ng/mL in each case.

For `c1cncc(C2=NCCC2)c1` [Myosmine], in test [1], the “Reactivity (%)” value is on record as under 1.5% and the IC50 is given as >5,000 ng/mL. For the same compound, the IC50 in test [2] is >5,000 ng/mL.

Consider `CN1C(=O)CCC1c1ccc[n+](C2OC(C(=O)[O-])C(O)C(O)C2O)c1` (stereo not drawn) [Cotinine-gluconuride, cotinine-glucuronide], for which, in test [1], the “Reactivity (%)” value is recorded as under 1.5% and the IC50 is >5,000 ng/mL. In addition, in test [2], the “Reactivity (%)” value is given as under 1% and the IC50 is >5,000 ng/mL.

`O=C1CCC(c2cccnc2)N1` (stereo not drawn) [Norcotinine]: the “Reactivity (%)” value in test [1] is reported as under 1.5%. Moreover, the IC50 in test [1] and in test [2] was >5,000 ng/mL throughout.

With `Cn1cccc1-c1cccnc1` [Nicotyrine], in test [1], the “Reactivity (%)” value was under 1.5% and the IC50 is recorded as >5,000 ng/mL. Moreover, the 50% inhibitory concentration (IC50) in test [2] is >5,000 ng/mL.

In the case of `c1cncc(C2=NCCCC2)c1` [Anabaseine], in test [1], the “Reactivity (%)” value is recorded as under 1.5% and the IC50 is reported as >5,000 ng/mL. Besides, the concentration for half-maximal inhibition (IC50) in test [2] is >5,000 ng/mL.

Turning to `c1cncc([C@@H]2CCCN2)c1` [Nornicotine], in test [1], the “Reactivity (%)” value is given as under 1.5% and the 50% inhibitory concentration (IC50) is >5,000 ng/mL. For the same compound, in test [2], the concentration for half-maximal inhibition (IC50) is >5,000 ng/mL.

For `C1=CCC(c2cccnc2)NC1` (stereo not drawn) [Anatabine], in test [1], the “Reactivity (%)” value is under 1.5% and the IC50 was >5,000 ng/mL. The IC50 in test [2] is on record as >5,000 ng/mL.

In the case of `CN1C(=O)CC[C@H]1c1cccnc1` [Cotinine], in test [1], the “Reactivity (%)” value was 100% and the concentration for half-maximal inhibition (IC50) came to 66.1 ng/mL (≈ 0.375 µM). In test [2], the “Reactivity (%)” value is given as under 1% and the 50% inhibitory concentration (IC50) was >5,000 ng/mL.

`CN1C(=O)CC[C@@]1(O)c1cccnc1` [5-Hydroxycotinine]: in test [1], the “Reactivity (%)” value was 4.39% and the IC50 is given as 1505.2 ng/mL (≈ 7.83 µM). For the same compound, in test [2], the “Reactivity (%)” value is on record as under 1% and the IC50 is reported as >5,000 ng/mL.

On to `CN1CCCC1c1ccc[n+]([O-])c1` (stereo not drawn) [Nicotine-N-Oxide, Nicotine-N-oxide], for which, in test [1], the “Reactivity (%)” value is recorded as under 1.5% and the IC50 is recorded as >5,000 ng/mL. In test [2], the “Reactivity (%)” value is under 1% and the half-inhibitory concentration (IC50) is listed as >5,000 ng/mL.

Take `CN1C(=O)C(O)C[C@H]1c1cccnc1` (stereo partly drawn) [3-Hydroxycotinine]: in test [1], the “Reactivity (%)” value is 1.86% and the half-inhibitory concentration (IC50) is reported as 3545.0 ng/mL (≈ 18.4 µM). Also, in test [2], the “Reactivity (%)” value was 100% and the IC50 worked out at 39.8 ng/mL (≈ 0.207 µM).

Turning to `CN1C(=O)C(O[C@@H]2O[C@H](C(=O)O)[C@@H](O)[C@H](O)[C@H]2O)CC1c1cccnc1` (stereo partly drawn) [3-Hydroxycotinine-gluconuride, 3-hydroxycotinine-glucuronide], in test [1], the “Reactivity (%)” value is listed as under 1.5% and the IC50 is >5,000 ng/mL. In addition, in test [2], the “Reactivity (%)” value is reported as under 1% and the IC50 is listed as >5,000 ng/mL.

Consider `CN1C(=O)CC[C@H]1c1ccc[n+]([O-])c1` [Cotinine-N-Oxide, cotinine-N-oxide], for which, in test [1], the “Reactivity (%)” value is on record as under 1.5% and the IC50 is given as >5,000 ng/mL. In test [2], the “Reactivity (%)” value is on record as under 1% and the IC50 is on record as >5,000 ng/mL.

In the case of `c1cncc(-c2ccnc(-c3cccnc3)c2)c1` [Nicotelline], in test [1], the “Reactivity (%)” value was under 1.5% and the half-inhibitory concentration (IC50) is recorded as >5,000 ng/mL. Also, in test [2], the half-maximal inhibitory concentration (IC50) is given as >5,000 ng/mL.

With `CN1CCCC1c1cccnc1` (stereo not drawn) [Nicotine], the “Reactivity (%)” value is recorded as under 1.5% in test [1] and under 1% in test [2]. Also, the IC50 in test [1] and in test [2] was >5,000 ng/mL throughout.
